Measured values: patent US6310091A, “Fungicidal saponin, CAY-1, and isolation thereof from Capsium species fruit” (The United States of America as represented by the …, priority 2000, dated 2001)
“And” between values parts separate entries of the source, which are not always exact repeats. Equal entries are not always repeated. Where two headings read alike, the source gives them in different places.

Columns and labels:
Candida albicans = assay: Effect on C. albicans viability (NCCLS broth dilution M-27A); assay type: cell-based
Experimental: 2. Candida albicans. The effect of CAY-1 on C. albicans viability was determined by the NCCLS methods (National Committee for Clinical Laboratory Standards, Wayne, Pa., 1997. Reference method for broth dilution antifungal susceptibility testing of yeasts. Approved standard M-27A, herein incorporated by reference).

Fusarium oxysporum = assay: Fungicidal bioassay on nongerminated and germinating conidia of F. oxysporum; assay type: cell-based
Experimental: (§1) 1. Filamentous fungi. Filamentous fungi used in bioassays included Aspergillus flavus, A. fumigatus, A. niger, A. parasiticus and Fusarium oxysporum. The fungicidal properties of CAY-1 for the nongerminated and germinating conidia of these fungi were determined separately as described by De Lucca et al. [Med. Mycol., 36:291-298 (1998)] and De Lucca et al. [Antimicrob. Agents Chemother. 43:371-373 (1999)]. […] Two separate experiments were conducted in each medium (n=8 per medium).
(§2) A suspension of the aforementioned fungi were prepared separately in the appropriate medium. Conidia (10^4 conidia/ml) were used immediately for the nongerminated conidial assays while conidia (10^5 conidia/ml) were incubated for 7.5 hours at 30° C. to obtain germinating conidia. Serial dilutions of CAY-1 were prepared in the appropriate medium (totaling 225 μl) to which was added 25 μl of the conidial suspensions. The control consisted of 225 μl of medium and 25 μl of the conidial suspension. After mixing, the samples were incubated for 30 min (30° C.). Samples were then spread on potato dextrose agar plates which were incubated at 30° C. for 24 hours. Colonies were then enumerated.
(§3) Statistical analyses. ANOVA analyses on ranks for nonparametric data were performed for the bioassays described in this example.

[1] = test system: A549 lung carcinoma cells; assay: Mammalian cytotoxicity, A549 lung carcinoma cells (ATP content); assay type: cell-based; conditions: at concentrations effective against the fungi and yeast
Experimental: 2. A549 lung carcinoma cells. Toxicity of CAY-1 was tested by exposing the cells to CAY-1 for 24, 48, and 72 hrs. Antimycin A was used as a positive control. Viability was assessed by measurement of the ATP content in duplicate wells with luciferin-luciferase monitoring reagent [Cushion et al., Antimicrob. Agents Chemother., 1997, 41:379-384].

[2] = test system: Escherichia coli ATCC 8739; assay: Bacterial lethality; assay type: cell-based; conditions: 0.5-10 μM; 37° C., 24 hrs
Experimental: (§4) 5. Bacteria. CAY-1 lethality to Escherichia coli ATCC 8739, Enterobacter agglomerans ATCC 27996, Bacillus subtilis ATCC 6051 and Staphylococcus aureus ATCC 12600 was determined by methods described earlier (De Lucca et al., Mol. cell Biochem., 1995, 151:141-148). Briefly, 24 hr bacterial cultures were washed and resuspended in 0.1 M PBS, pH 7.2, amended with 0.15 mM MgCl2 and 0.5 mM CaCl2 and adjusted to 80% transmittance (approximately 10^8 cells/ml) at 590 nm. Bacterial suspensions were mixed with PBS and CAY-1 (final concentrations: 0, 0.5, 1, 2, 4, 8, 10 μM) in sterile 96-well plates (Nunc, Roskilde, Denmark) and incubated (37° C., 24 hrs). Bioassays were performed twice for each bacteria (n=8).

[3] = test system: Staphylococcus aureus ATCC 12600; assay: Bacterial lethality; assay type: cell-based; conditions: 0.5-10 μM; 37° C., 24 hrs
Experimental: as §4

[4] = test system: Enterobacter agglomerans ATCC 27996; assay: Bacterial lethality; assay type: cell-based; conditions: 0.5-10 μM; 37° C., 24 hrs
Experimental: as §4

[5] = test system: Bacillus subtilis ATCC 6051; assay: Bacterial lethality; assay type: cell-based; conditions: 0.5-10 μM; 37° C., 24 hrs
Experimental: as §4

Aspergillus niger = assay: Fungicidal bioassay on nongerminated and germinating conidia of A. niger; assay type: cell-based; conditions: for activity at 5 µM / activity at 10 µM / activity at 15 µM / activity at 20 µM / activity at 1 µM / activity at 2.5 µM: read-out: Percent of Mean Control
Experimental: as §1, §2, §3

[6] = Mammalian cytotoxicity, HeLa cells (neutral red); assay type: cell-based, Human; conditions: human, hela cells
Experimental: (§5) 1. HeLa cells. Human epitheloid cervical carcinoma cells (ATCC2.2CCL) were grown in MEM media (Mediatech), supplemented with fetal bovine sera and penicillin (De Lucca et al., Antimicrob. Agents Chemother., 1999, 43:371-373). The cells were rinsed with PBS and harvested using trypsin. Cell count was determined manually using trypan blue and cells were diluted to a final concentration of 2.5×10^5 […]. Aliquots of 100 μl were dispensed per well into a 96-well plate. Cells were incubated overnight (18-24 hours) at 37° C. in a humidified 5% (v/v) CO2 environment. Neutral red dye solution was then added to each well culture and re-incubated for 3 hours. Two-fold serial dilutions of CAY-1 were prepared and aliquoted to final concentrations of 5, 10, 20, 30, and 60 μM (6, 12, 25, 37 and 74 μg/ml, respectively). Negative controls without CAY-1 were included. Cells were exposed to the saponin for 1 hour. Supernatants from each well were transferred into another 96-well plate. The remaining cells were lysed using a 2% Triton solution. Glacial acetic acid was then added to supernatants and lysates, and absorbance was read at A540.

HeLa cells = assay: Mammalian cytotoxicity, HeLa cells (neutral red); assay type: cell-based, Human; conditions: at concentrations effective against the fungi and yeast
Experimental: as §5

## CC1CCC2(OC1)OC1CC3C4CCC5CC(OC6OC(CO)C(OC7OC(CO)C(O)C(OC8OC(CO)C(O)C(OC9OC(CO)C(O)C(O)C9O)C8O)C7OC7OC(CO)C(O)C(O)C7O)C(O)C6O)C(O)CC5(C)C4CCC3(C)C1C2C (stereo not drawn) [CAY-1]
Candida albicans
  IC50: 3.1 µM and 3.8 µg/mL
  IC90: 6.2 µM and 7.7 µg/mL
Candida albicans; read-out: lowest effective level in vitro
  minimal effective concentration: ~3 µM
Fusarium oxysporum
  activity against conidia: not active
[1]
  lethality to mammalian cells: not lethal
[2]
  lethality to bacteria: not effective
[3]
  lethality to bacteria: not effective
[4]
  lethality to bacteria: not effective
[5]
  lethality to bacteria: not effective
Aspergillus niger; Aspergillus niger, 0.5 h, germinated, RPMI-1640, 5.0 μM
  activity at 5 µM: 94.9%
Aspergillus niger; Aspergillus niger, 0.5 h, germinated, RPMI-1640, 10.0 μM
  activity at 10 µM: 86.2%
Aspergillus niger; Aspergillus niger, 0.5 h, germinated, RPMI-1640, 15.0 μM
  activity at 15 µM: 93.9%
Aspergillus niger; Aspergillus niger, 0.5 h, germinated, RPMI-1640, 20.0 μM
  activity at 20 µM: 85.4%
Aspergillus niger; Aspergillus niger, 0.5 h, germinating, 1% PDB, 1.0 μM
  activity at 1 µM: 118%
Aspergillus niger; Aspergillus niger, 0.5 h, germinating, 1% PDB, 2.5 μM
  activity at 2.5 µM: 89.8%
Aspergillus niger; Aspergillus niger, 0.5 h, germinating, 1% PDB, 5.0 μM
  activity at 5 µM: 18.2%
Aspergillus niger; Aspergillus niger, 0.5 h, germinating, 1% PDB, 10.0 μM
  activity at 10 µM: 12%
Aspergillus niger; Aspergillus niger, 0.5 h, germinating, 1% PDB, 15.0 μM
  activity at 15 µM: 5.7%
Aspergillus niger; Aspergillus niger, 0.5 h, germinating, 1% PDB, 20.0 μM
  activity at 20 µM: 3.9%
Aspergillus niger; Aspergillus niger, 0.5 h, nongerminated, 1% PDB, 1.0 μM
  activity at 1 µM: 102%
Aspergillus niger; Aspergillus niger, 0.5 h, nongerminated, 1% PDB, 2.5 μM
  activity at 2.5 µM: 96.6%
Aspergillus niger; Aspergillus niger, 0.5 h, nongerminated, 1% PDB, 5.0 μM
  activity at 5 µM: 118%
Aspergillus niger; Aspergillus niger, 0.5 h, nongerminated, 1% PDB, 10.0 μM
  activity at 10 µM: 92.7%
Aspergillus niger; Aspergillus niger, 0.5 h, nongerminated, 1% PDB, 15.0 μM
  activity at 15 µM: 116%
Aspergillus niger; Aspergillus niger, 0.5 h, nongerminated, 1% PDB, 20.0 μM
  activity at 20 µM: 64.4%
Aspergillus niger; Aspergillus niger, 0.5 h, nongerminated, RPMI-1640, 5.0 μM
  activity at 5 µM: 76.8%
Aspergillus niger; Aspergillus niger, 0.5 h, nongerminated, RPMI-1640, 10.0 μM
  activity at 10 µM: 87.7%
Aspergillus niger; Aspergillus niger, 0.5 h, nongerminated, RPMI-1640, 15.0 μM
  activity at 15 µM: 83.8%
Aspergillus niger; Aspergillus niger, 0.5 h, nongerminated, RPMI-1640, 20.0 μM
  activity at 20 µM: 104%
Aspergillus niger; Aspergillus niger, 0.5 h, read-out: LD95
  IC95: 15 µM and 18.6 µg/mL
Aspergillus niger; Aspergillus niger, 0.5 h, read-out: concentration achieving significant lethality
  minimal effective concentration: 5 µM and 6.2 µg/mL
Aspergillus niger; germinated, RPMI-1640, 5.0 μM
  Mean No. of Colonies: 50.1
Aspergillus niger; germinated, RPMI-1640, 10.0 μM
  Mean No. of Colonies: 45.5
Aspergillus niger; germinated, RPMI-1640, 15.0 μM
  Mean No. of Colonies: 49.6
Aspergillus niger; germinated, RPMI-1640, 20.0 μM
  Mean No. of Colonies: 45.1
Aspergillus niger; germinating conidia, RPMI-1640
  lethality to germinating conidia: no effect was observed
Aspergillus niger; germinating, 1% PDB, 1.0 μM
  Mean No. of Colonies: 60.4
Aspergillus niger; germinating, 1% PDB, 2.5 μM
  Mean No. of Colonies: 45.8
Aspergillus niger; germinating, 1% PDB, 5.0 μM
  Mean No. of Colonies: 9.3
Aspergillus niger; germinating, 1% PDB, 10.0 μM
  Mean No. of Colonies: 6.1
Aspergillus niger; germinating, 1% PDB, 15.0 μM
  Mean No. of Colonies: 2.9
Aspergillus niger; germinating, 1% PDB, 20.0 μM
  Mean No. of Colonies: 2.0
Aspergillus niger; nongerminated conidia, either test medium
  viability of nongerminated conidia: not affected
Aspergillus niger; nongerminated, 1% PDB, 1.0 μM
  Mean No. of Colonies: 36.5
Aspergillus niger; nongerminated, 1% PDB, 2.5 μM
  Mean No. of Colonies: 34.5
Aspergillus niger; nongerminated, 1% PDB, 5.0 μM
  Mean No. of Colonies: 42.3
Aspergillus niger; nongerminated, 1% PDB, 10.0 μM
  Mean No. of Colonies: 33.1
Aspergillus niger; nongerminated, 1% PDB, 15.0 μM
  Mean No. of Colonies: 41.5
Aspergillus niger; nongerminated, 1% PDB, 20.0 μM
  Mean No. of Colonies: 23.0
Aspergillus niger; nongerminated, RPMI-1640, 5.0 μM
  Mean No. of Colonies: 37.5
Aspergillus niger; nongerminated, RPMI-1640, 10.0 μM
  Mean No. of Colonies: 42.8
Aspergillus niger; nongerminated, RPMI-1640, 15.0 μM
  Mean No. of Colonies: 40.9
Aspergillus niger; nongerminated, RPMI-1640, 20.0 μM
  Mean No. of Colonies: 51.0
[6]
  MCC at 1 h: 30 µM and 37 µg/mL
  cytotoxicity at 1 h, 30 µM: ~13%
  cytotoxicity at 1 h, 60 µM: ~32%
HeLa cells
  lethality to mammalian cells: not lethal
